Experimental data: patent publication US11945779B2, “Inhibitors of cancer metastasis through inhibiting migration and invasion of cancer cells” (VSpharmtech, priority 2018, dated 2024)

Legend:
[1] = system: normal cells MCF10A; assay: Cell migration of normal cells MCF10A; format: cell-based; conditions: FIG. 2
[2] = system: human-derived colon cancer cell line (HCT-116 luciferase); assay: Colon cancer liver metastasis implant model in nude mouse (live animal imaging); format: in vivo; conditions: for Cancer metastasis inhibitory effect by whole image data: 20 times, five times a week
Text: In this experiment, a human-derived colon cancer cell line (HCT-116 luciferase) was implanted to the spleen and then the spleen was removed and sutured after four days. In a colon cancer liver metastasis implant model, cancer metastasis inhibitory activity by oral administration of CG-609 was verified using a live animal imaging system. As the animal, an Athymic-NCr NCr-nu SPF 5-week-old nude mouse supplied from Koatech (Pyeongtaek-si, Gyeonggi-do) was used. By adjusting a concentration of cancer cells to 2×10^6 cells/mL, the cell culture solution was injected directly into the spleen using a syringe (31 G needle, ½ cc) by 30 μL per mouse. The drug CG-609 was dissolved to a concentration of 5 mg/kg or 10 mg/kg using 0.5% Tween80 and then orally administered to the mouse in an amount of 10 mL/kg total 20 times on a schedule of five times a week.
HCT-116 luciferase cells were implanted, drug administration started from the day after the cancer cell was implanted, and the cells were imaged a total of seven times until the 25th day, the end of the experiment. During imaging, 50 μL of […] was intraperitoneally administered into each side of the animal's abdomen at a concentration of luciferin 15 mg/mL, and then photographed using an optical imaging system (IVIS-spectrum CT, PerkinElmer). On the final day of the test, the mouse was imaged and then […], and major organs (liver, kidney, and colon) were extracted to be imaged, and then the degree of image signal was measured. The values of all measurement items were tested for statistical significance by comparing a solvent control and a drug administration group using a t-TEST statistical method (FIGS. 10A and 10B).

[3] = system: pancreatic cancer cell line AsPc-1; assay: Cytotoxicity / proliferation analysis (WST-1), AsPc-1; format: cell-based, human; conditions: AsPc-1, FIG. 8
Procedure: In order to verify cytotoxicity of CG-608 to CG-610 and CG-613 to CG-618 prepared in Examples 1 to 9, human colon cancer cell line DLD-1 cells (ATCC-CCL-221), pancreatic cancer cell line AsPc-1 cells (ATCC-CRL-1682), and normal cells MCF10A (ATCC-CRL-10317) were cultured in an RPMI medium containing 10% bovine fetal serum (FBS) while maintaining 37° C. and 5% CO2, and then the cells were detached using a 0.05% trypsin-EDTA. 4×10^3 cells calculated by a hematocytometer were inoculated in each well of a 96-well plate containing a 10% FBS containing medium and cultured in a 37° C. incubator containing 5% C2.
After 24 hours, the medium of each well was exchanged to a new medium containing a control group (0.1% DMSO) and CG-609 prepared in Example 1 or CG-618 prepared in Example 9 as a representative benproperine derivative at concentrations of 1 μM, 5 μM, and 10 μM. Thereafter, the cells were cultured in an incubator at 37° C. and 5% CO2 for 48 hours. Thereafter, […] of WST-1 (Roche) was added to each well and cultured for 2 hours, and then the absorbance was measured at 450 nm using an ELISA reader (Bio-Rad).

[4] = system: human melanoma cell line A375P; assay: Lamellipodia formation inhibition (confocal microscope), A375P; format: cell-based; conditions: A375-p, 6 hours, FIG. 9
Procedure: (§1) A human colon cancer cell line DLD-1, a human pancreatic cancer cell line AsPc-1, a human melanoma cell line A375P, and normal cells MCF10A were each cultured to 1×10^5 cell density on a 35 mm high-m dish plate (ibid GmbH). The cells attached to the plate were washed with phosphate buffered saline (PBS) and then treated with DMSO or CG-618 dissolved in DMSO for 6 hours. After removing the cell culture medium from the plate, the plate was washed two times with PBS and treated with 4% paraformaldehyde dissolved in PBS at room temperature for 10 minutes to immobilize the cells. The plate was washed with PBS once and then treated with 0.2% Triton X-100 at room temperature for 10 minutes to enhance cell permeability. The plate was washed with PBS and treated with 1% BSA dissolved in PBS at room temperature for 1 hour to block non-specific bonds. In order to check the distribution in cells of filament actin (F-actin), phalloidin bound with Alexa Fluor 488, which was specifically bound with F-actin, was treated at room temperature for 15 minutes. The plate was washed with PBS three times and then treated with 2 mg/mL 4′,6′-diamidino-2-phenylindole (DAPAI) dissolved in PBS for two minutes at room temperature to dye the nucleus. The plate was washed with PBS three times and filled with 1 mL PBS. […] The obtained images were analyzed by an analysis program (LSM Version 3.2 software).

[5] = system: normal cells MCF10A; assay: Lamellipodia formation (confocal microscope), MCF10A; format: cell-based; conditions: normal cell line MCF-10A, 6 hours, FIG. 9
Procedure: as §1

[6] = system: colon cancer cell line DLD-1; assay: Real-time single cell migration imaging (HoloMonitor M4), DLD-1; format: cell-based, human; conditions: DLD-1, 24 hours, FIG. 7
Procedure: (§2) An effect of a drug on migration of single cells was confirmed using HoloMonitor M4 (Phase Holographic Imaging), real-time cell migration imaging and analysis equipment. All experiments were performed within a 37° C. cell incubator to analyze cell migration while cells were alive for a long time. To prevent water vapor generated during cell imaging for a long time from obstructing the imaging, the experiment was conducted by dividing cells in an m-slide microcopy chamber (Ibidi). In order to analyze migration of single cells, cells (2.5×10^5 cells/mL) to be analyzed were divided to the m-slide microscopy chamber by 0.2 mL and cultured for more than 12 hours. The cells were sufficiently attached to its original shape and then treated with the drug, and a position to be analyzed was specified, and then the cell migration was measured in real time.
(§3) The cell migration was measured for 24 hours at five-minute intervals, and migration of 25 cells per group was analyzed. Using the HoloMonitor tracking software, a total distance migrated by the cells during the time measured, a linear distance from the starting point to the arrival point, a rate of migration, and a direction were quantitatively analyzed, and the migration of single cells was visualized with a Wind-Rose plot (FIG. 7).

[7] = system: normal cell line MCF-10A; assay: Real-time single cell migration imaging (HoloMonitor M4), MCF-10A; format: cell-based; conditions: 24 hours, FIG. 7
Procedure: as §2, §3

## C[C@H](COc1ccccc1Cc1ccccc1)N1CCCC[C@@H]1C [CG-609, (S)-1-((R)-1-(2-benzylphenoxy)propan-2-yl)-2-methylpiperidine]
[1]
  Cell migration of normal cells: did not inhibit
[2]; 5 mg/kg oral
  Colon metastasis inhibitory effect: 76.9%
  Liver metastasis inhibitory effect: 47.7%
  Renal metastasis inhibitory effect: 72.4%
  Cancer metastasis inhibitory effect by whole image data: 77.9%
[2]; 5 mg/kg, 10 times lower dose than benproperine (50 mg/kg), FIGS. 10A and 10B
  Inhibition of cancer metastasis in animal experiment: ≥ 50%
[2]; 10 mg/kg oral
  Colon metastasis inhibitory effect: 85.6%
  Liver metastasis inhibitory effect: 58.6%
  Renal metastasis inhibitory effect: 76.1%
  Cancer metastasis inhibitory effect by whole image data: 80.1%
[3]
  Growth of cancer cells: did not affect the growth

## CC1CCCCN1C(C)COc1ccccc1Cc1ccccc1 (racemic) [CG-618, 1-(1-(2-benzylphenoxy)propan-2-yl)-2-methylpiperidine]
[4]
  Formation of lamellipodia: inhibits formation of lamellipodia
[1]
  Cell migration of normal cells: did not inhibit
[5]
  Formation of lamellipodia: has no effect
[3]
  Growth of cancer cells: did not affect the growth
[6]
  Migration of single cancer cells (real-time imaging): strongly inhibited
[7]
  Migration of single normal cells (real-time imaging): increased
